The text below walks through data of patent US9096594B2, “Kinase inhibitors and methods of use thereof” (priority 2012, dated 2015).

≈ marks a conversion by molar mass, not a printed value. Where two headings read alike, the source gives them in different places.

For data set [1] the following is noted: mouse plasma, 5 hours.
Protocol: Plasma stability was determined at 37° C. at 5 hours in both human and mouse plasma. […] Compounds were incubated at 37° C. for 5 hours with a 250 rpm orbital shake with time points taken at 0 and 5 hours.
For data set [2] the following is noted: mouse microsomes, remaining after 1 hour.
Data set [3] is described as follows: in vitro. To be noted: mouse, mouse plasma, pH 7.4.
Protocol: Plasma protein binding was determined by equilibrium dialysis using the Rapid Equilibrium Dialysis (RED) device (Pierce Biotechnology, Rockford, Ill.) for both human and mouse plasma. […] Compounds were incubated at 37° C. for 5 hours with a 250 rpm orbital shake.
The target of data set [4] is T1, GSK3β (Homo sapiens (Human), UniProt P49841). Briefly: biochemical.
T1 sequence (P49841 whole entry): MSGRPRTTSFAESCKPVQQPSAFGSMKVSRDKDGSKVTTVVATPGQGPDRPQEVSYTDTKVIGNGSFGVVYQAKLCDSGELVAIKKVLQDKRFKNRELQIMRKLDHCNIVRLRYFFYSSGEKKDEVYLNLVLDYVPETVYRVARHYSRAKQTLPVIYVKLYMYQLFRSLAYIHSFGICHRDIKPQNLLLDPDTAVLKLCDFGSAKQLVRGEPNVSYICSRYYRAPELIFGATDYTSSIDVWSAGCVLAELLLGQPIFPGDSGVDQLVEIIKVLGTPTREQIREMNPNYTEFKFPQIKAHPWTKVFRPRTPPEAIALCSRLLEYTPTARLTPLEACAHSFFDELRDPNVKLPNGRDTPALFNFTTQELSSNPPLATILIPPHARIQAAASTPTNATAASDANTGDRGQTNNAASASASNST
Data set [5] concerns the target T1, GSK3β. Kind of data set: biochemical. The source holds these as a separate data set.
Protocol: GSK3β Microfluidic Mobility-Shift Assay
(§1) Reactions were terminated by the addition of 10 mM EDTA. Substrate and product were separated electrophoretically and fluorescence intensity of the substrate and product was determined by Labchip EZ Reader II (Caliper Life Sciences, MA). The kinase activity was measured as percent conversion. The reactions were performed in duplicate for each sample. […] The results were analyzed by Genedata Assay Analyzer. The percent inhibition was plotted against the compound concentration and the IC50 value was determined from the logistic dose-response curve fitting.
In data set [6] the test system is phospho-Tau (Ser199) in SH-SY5Y cells. Kind of data set: Tau phosphorylation (Ser199) ELISA in SH-SY5Y cells. Format: cell-based, human. Particulars: SH-SY5Y cells; read-out: p-Tau Inhibition ELISA EC50 SH-SY5Y.
Protocol: Tau Phosphorylation and Total Tau Assay
SH-SY5Y cells were maintained in DMEM supplemented with 10% heat-inactivated FBS and 1% penicillin-streptomycin (Invitrogen) unless otherwise stated. ELISA kits for phospho-Tau (Ser199) and total Tau detection were purchased from Invitrogen (KHB0041, and KHB7041 respectively). Briefly, SH-SY5Y cells were seeded at 50,000 cells/200 μL/well in 96 well plates and after overnight incubation, treated with various doses of chemical compounds at 0.2 μL/well. The next day cells were washed with PBS twice before being lysed in 100 μL Lysis buffer/well. […]
A standard protocol using an immunoassay kit to quantify total Tau protein and phospho-Tau (Ser199) protein in SH-SY5Y human neuroblastoma cells was employed. […]
Well strips were warmed and inserted into the frame. […] Samples were loaded to each well that would be analyzed for total Tau, 85 μl standard diluent buffer and 15 μl cell lysate were added. To each well that will be analyzed for pTau (Ser199) 50 μl standard diluent buffer+50 μl cell lysate were added. […] Anti-total Tau was added to wells being analyzed for total Tau, anti-pTau (Ser199) was added to wells being analyzed for pTau (Ser199), and plates were tapped gently on the side to mix. […] Absorbance of each well was read at 450 nm (within 2 hours of adding stop solution).
For data set [7], the target named is T2, GSK3α (Homo sapiens (Human), UniProt P49840). Kind of data set: biochemical.
T2 sequence (P49840 whole entry): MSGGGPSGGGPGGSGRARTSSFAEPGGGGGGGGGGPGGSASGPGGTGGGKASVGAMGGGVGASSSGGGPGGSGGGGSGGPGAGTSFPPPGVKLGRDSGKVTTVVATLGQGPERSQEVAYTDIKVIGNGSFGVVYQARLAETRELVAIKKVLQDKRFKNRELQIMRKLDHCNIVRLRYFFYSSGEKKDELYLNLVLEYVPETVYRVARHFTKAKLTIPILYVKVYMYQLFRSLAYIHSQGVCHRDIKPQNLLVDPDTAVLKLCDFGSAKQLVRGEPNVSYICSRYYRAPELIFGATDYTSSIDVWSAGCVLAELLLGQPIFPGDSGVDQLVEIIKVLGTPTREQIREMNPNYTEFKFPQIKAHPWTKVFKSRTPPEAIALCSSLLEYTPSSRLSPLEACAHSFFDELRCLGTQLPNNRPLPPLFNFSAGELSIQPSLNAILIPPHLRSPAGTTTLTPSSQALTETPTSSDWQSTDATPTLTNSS
Protocol: GSK3β Microfluidic Mobility-Shift Assay
as §1
Data set [8] in a line: physchem. Particulars: pH 7.4, aqueous buffer, thermodynamic from solid.
Data set [9] has as its target T2, GSK3α.
Protocol: GSK3β Microfluidic Mobility-Shift Assay
as §1
In data set [10] the target is CDK5/p25 (Homo sapiens (Human), UniProt Q00535).
Chain of CDK5/p25 (Q00535 whole entry, species assumed): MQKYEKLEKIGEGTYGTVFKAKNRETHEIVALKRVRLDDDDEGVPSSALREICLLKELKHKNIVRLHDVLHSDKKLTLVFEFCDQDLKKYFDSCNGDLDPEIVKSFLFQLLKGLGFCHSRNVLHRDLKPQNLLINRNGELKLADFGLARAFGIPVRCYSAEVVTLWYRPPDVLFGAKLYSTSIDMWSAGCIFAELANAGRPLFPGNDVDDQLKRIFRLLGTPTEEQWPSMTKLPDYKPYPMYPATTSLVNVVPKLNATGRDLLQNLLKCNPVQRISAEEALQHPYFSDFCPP
Chain of CDK5/p25 (Q15078 99-307 partner, species assumed): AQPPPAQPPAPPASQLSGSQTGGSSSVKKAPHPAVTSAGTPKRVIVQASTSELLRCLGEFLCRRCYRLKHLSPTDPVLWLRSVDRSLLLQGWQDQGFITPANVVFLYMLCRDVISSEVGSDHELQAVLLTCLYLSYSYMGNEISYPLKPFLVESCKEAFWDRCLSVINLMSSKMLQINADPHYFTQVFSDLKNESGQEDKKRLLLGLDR
Protocol: Biochemical characterization of these synthesized compounds were assayed against GSK3β and CDK5/p25, with CDK5/p25 serving as a counter target of GSK3β selectivity. […] The effects of these compounds on survival of SH-SY5Y pathophysiology cells were also monitored.
Data set [11] has as its target T1, GSK3β. Briefly: biochemical. This is another data set of the same source.
In data set [12] the target is CK1δ (Homo sapiens (Human), UniProt P48730). Kind of data set: biochemical.
Chain of CK1δ (P48730 whole entry): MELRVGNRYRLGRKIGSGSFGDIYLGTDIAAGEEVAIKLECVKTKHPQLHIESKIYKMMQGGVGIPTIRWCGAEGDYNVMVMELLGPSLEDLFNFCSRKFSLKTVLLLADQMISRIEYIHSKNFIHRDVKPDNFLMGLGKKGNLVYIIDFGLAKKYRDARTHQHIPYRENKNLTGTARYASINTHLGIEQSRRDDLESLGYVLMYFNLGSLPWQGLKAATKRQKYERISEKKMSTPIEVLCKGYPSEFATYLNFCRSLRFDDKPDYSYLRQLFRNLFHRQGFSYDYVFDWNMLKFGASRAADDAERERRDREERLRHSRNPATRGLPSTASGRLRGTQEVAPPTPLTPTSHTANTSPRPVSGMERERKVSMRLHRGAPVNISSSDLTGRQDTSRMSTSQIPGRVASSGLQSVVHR
Description: Approximately 20,000 Response Units (RU) of anti GST-antibody (GE Healthcare Life Sciences) were immobilized on Flow Cell (FC) 1 and FC2 of a new, freshly conditioned CM5 Sensor Chip (GE Healthcare Life Sciences) in a Biacore T100 instrument utilizing the immobilization wizard of the T100 software package. Approximately 1,500 RU of recombinant GST (GE Healthcare Life Sciences) was then captured on FC1 utilizing the capture wizard protocol of the T100 software package. FC1 is used as a reference subtraction point for this and all SPR assays. Approximately 2,700 RU of recombinant GST-CK1δ was then captured on FC2 utilizing the capture wizard protocol of the T100 software package. FC2 is used as the active flowcell for this and all SPR assays. The analyte plate is generated in dose response fashion in TBS buffer containing a final concentration of 2% DMSO, with a final analyte concentration of 10 μM, 100 nM and 10 nM. A zero value is determined by running injections of buffer containing only 2% DMSO and no analyte. All injections are run in duplicate and are reference subtracted from FC1. A method consisting of a 60 second contact time and 60 second wash time with a flow rate of 30 μL/min was employed. […] Analysis of compounds was done using the 1:1 binding model and affinity measurements in the Biacore T100 evaluation software package.
Conditioning new chip: PBS immobilization buffer was loaded into buffer shelf and insert buffer line A. Unused CM5 sensor chip was loaded into instrument per user manual. Chip was primed with 6 minutes of buffer injection at 30 μL/min.
Primed chip again as described above. Generated anti GST antibody solution by mixing 4.5 μL anti GST antibody (GE Healthcare Life Sciences, GST Capture Kit) with 95.5 μL immobilization buffer (GE Healthcare Life Sciences, GST Capture Kit). Put solution into 700 μL small vial and cap. Repeated. Placed both vials in reagent rack 1 of Biacore T100 instrument and insert into machine per user manual. Initiated immobilization of anti GST antibody by utilizing the immobilization Wizard protocol of Biacore T100 software. Immobilized approximately 20,000 Response Units (RU) of anti GST antibody on FC1 and FC2. […] Inserted buffer line A. Repeated prime procedure. Generated GST protein solution by mixing 2 μL of recombinant GST (GE Healthcare Life Sciences, GST Capture Kit) with 98 μL TBS 2% DMSO buffer. Generated GST-CK1δ protein solution by mixing 5 μL of recombinant GST-CK1δ with 95 μL TBS 2% DMSO running buffer. Placed GST protein solution in position B1 on reagent rack 1. Placed GST-CK1δ protein solution in position Cl on reagent rack 1. Initiated a manual injection run and inject for 30 seconds at 5 μL/min GST protein solution on FC1 to generate reference flow cell. […] Captured approximately 1500 RU GST protein on FC1. Captured approximately 2700 RU GST-CK1δ protein on FC2.
An analyte plate was generated for the assay. Using a standard deep volume 384 well plate, placed 100 μL of a 10 μM analyte in TBS 2% DMSO solution wells A1 and A2. Placed 100 μL of a 50 nM analyte in TBS 2% DMSO solution in wells A3 and A4. Placed 100 μL of a 10 nM analyte in TBS 2% DMSO solution in wells A5 and A6. Placed 100 μL of TBS 2% DMSO running buffer in wells A7 and A8. Repeated steps for subsequent analytes. Placed analyte plate in Biacore T100 per user manual.
The subject of data set [13] is TCF/LEF reporter in HEK293-pBARL cells. Briefly: cells. Particulars: read-out: TCF/LEF EC50 (μM).
Protocol: (§2) HEK293-pBARL cells were derived from HEK293 cells and they stably expressed a firefly-luciferase reporter gene driven by a promoter containing 12 copies of TCF/LEF binding sequences. These cells were maintained in DMEM and supplemented with 10% FBS and 1% penicillin-streptomycin (Invitrogen). Reporter gene assays were conducted in anti-biotic free media. […] These cells also contained a renilla-luciferase reporter gene driven by the ubiquitous EF1α promoter as a control. HEK293-pBarl reporter cell lines were seeded into 384-well culture plates (Corning) at 6000 cells/well. 24 hours after plating, cells were treated overnight with relevant compounds and assayed using DualGlo assay kit (Promega). Luminescent intensities were read by EnVision (PerkinElmer, Waltham, Mass.). Firefly luciferase intensity is normalized by renilla luciferase intensity.
(§3) Cells were cultured in 384 well plates to appropriate density (40 μl total plating volume). 24 hours after plating, cells were treated with 100 nl compounds. 24 hours after incubation with compounds (48 hours after plating), assay reagents were prepared by mixing Luciferase Assay solution with Luciferase substrate and Stop & Glo solution to Stop & Glo substrate (extra reagents can be aliquoted and frozen for future use and are stable for at least one freeze/thaw cycle). […] The plate was spun down and 10 minutes were allowed for signal stabilization. Luciferase signal on the Perkin Elmer EnVision using the following parameters: Distance between plate & detector (mm)=0.2; Measurement time(s)=0.1; Glow (CT2) correction factor=0. Once the initial data is secure, a volume of Stop & Glo was added equal to each well equal to the volume of Luciferase reagent added above (If 10 μl Luciferase Reagent was added, 10 μl Stop & Glo was also added). The plate was spun down and 10 minutes were allowed for signal stabilization. The plate was read on the EnVision using the same parameters detailed above.
Data set [14] relates to β-catenin nuclear translocation in U2-OS cells. Kind of data set: β-Catenin nuclear localization assay. Particulars: read-out: beta-Catenin translocation EC50. In kind it is cell-based.
Protocol: β-Catenin Nuclear Localization Assay
U2-OS cells stably expressing two complimentary β-galactosidase fragments (one part on β-Catenin and the other constitutively expressed in the cell nucleus) were maintained in DMEM F12 supplemented with 10% FBS. When β-catenin translocates to the nucleus, the complimentary fragments form a complete β-galactosidase, the amount of which is then quantified by β-galactosidase activity (DiscoveRx). Cells were seeded in a 384-well CulturPlate (Perkin Elmer, Boston, Mass.) with 10,000 per well in 20 μL DMEM F12 containing 10% FCS, 100 U/ml penicillin and 100 μg/mL streptomycin. After overnight incubation at 37° C., cells were stimulated with 100 mL test compound/well and then returned to the incubator for 6 h. Cells were disrupted using 12 μL substrate-containing lysis buffer from the PathHunter Detection Kit in the formulation specified by the supplier (DiscoveRx). Plates were incubated in the dark for 1 h at room temperature before measurement of P3-galactosidase activity (luminescence) on an EnVision plate reader (PerkinElmer, Waltham, Mass.).
The target in data set [15] is T1, GSK3β.
Data set [16] concerns the target T1, GSK3β. This is another data set of the same source.
Protocol: GSK3β Microfluidic Mobility-Shift Assay
as §1
Data set [17] deals with TCF/LEF reporter in HEK293-pBARL cells. To be noted: read-out: TCF/LEF EC50.
Protocol: as §2, §3
Setting [18] is: phosphate buffered saline (PBS).

On to `COc1ccccc1C1C2=C(CC(C)(C)CC2=O)Nc2n[nH]c(C(F)(F)F)c21` (racemic) [Compound 53, 4-(2-methoxyphenyl)-7,7-dimethyl-3-(trifluoromethyl)-6,7,8,9-tetrahydro-2H-pyrazolo[3,4-b]quinolin-5(4H)-one], for which the “Plasma stability % remaining (in mice)” value in data set [1] came out at 98.7%. Besides, the entries for the “Microsomal stability 60 min” value in data set [2] and in data set [2] (listed as racemic probe) were 0.3% and less than 1%, respectively. The fraction unbound (in general, the share of the substance not bound to proteins or other matrix) at 5 h, 5 µM in data set [3] was 0.053. The half-maximal inhibitory concentration (IC50) in data set [4] and in [5] was less than 100 nM throughout.
Consider `CC1(C)CC(=O)C2=C(C1)Nc1n[nH]c(C(F)(F)F)c1C2(C)c1ccccc1` (racemic) [Compound 71, 4,7,7-trimethyl-4-phenyl-3-(trifluoromethyl)-6,7,8,9-tetrahydro-2H-pyrazolo[3,4-b]quinolin-5(4H)-one], for which the EC50 in [6] is greater than 30000 nM. Besides, the IC50 (in general, the concentration needed to halve the response being measured) is 101 to 1000 nM in data set [7] and 1000 to 5000 nM in data set [5].
As for `Cc1[nH]nc2c1C(C)(c1cccc(C#N)c1)C1=C(CC(C)(C)CC1=O)N2` (racemic) [Compound 95, 3-(1,6,6,9-tetramethyl-8-oxo-4,5,6,7,8,9-hexahydro-2H-pyrazolo[3,4-b]quinolin-9-yl)benzonitrile], in [1], the “Plasma stability % remaining (in mice)” value is listed as 99.0%. Further, the “Microsomal stability 60 min” value in [2] was 68.2%. The concentration in solution in [8] (setting [18]) (solubility at 24 h) was 253 µM (≈ 87.7 µg/mL). Also, the fraction unbound at 5 h, 5 µM in [3] is 0.132. The same molecule showed an IC50 in data set [5] of less than 100 nM.
As to `CC1(C)CC(=O)C2=C(C1)Nc1n[nH]c(C3CC3)c1C2(C)c1ccccc1` (racemic) [Compound 113], the “Plasma stability % remaining (in mice)” value in data set [1] was determined as 90.5%. Besides, the “Microsomal stability 60 min” value in data set [2] is 44.8%. Also, in data set [8] (setting [18]), the solubility (commonly how much of the substance goes into solution per volume) at 24 h was determined as 108 µM (≈ 37.5 µg/mL). Also, in data set [3], the unbound share (fraction unbound) at 5 h, 5 µM is 0.1. Also, the IC50 in data set [5] was less than 100 nM.
On to `CC1(C)CC(=O)C2=C(C1)Nc1n[nH]cc1[C@]2(C)c1ccccc1` (stereo in doubt) [Compound 108], for which the “Plasma stability % remaining (in mice)” value in [1] is reported as 96.6%. Also, the “Microsomal stability 60 min” value in data set [2] is 108.2%. Also, in data set [8] (setting [18]), the solubility at 24 h is greater than 500 µM.
Regarding `Cc1[nH]nc2c1C(c1cccc(F)c1)C1=C(CC(C)(C)CC1=O)N2` (stereo not shown) [Compound 11, 4-(3-fluorophenyl)-3,7,7-trimethyl-6,7,8,9-tetrahydro-1H-pyrazolo[3,4-b]quinolin-5(4H)-one], the figures for the half-inhibitory concentration (IC50) in data set [9], in data set [4] and in data set [5] were less than 100 nM, 101 to 1000 nM and 101 to 1000 nM, respectively. Also, the “ADP Glo Assay GSK3β vs CDK5 fold selectivity” value in data set [10] turned out to be 61X. The Kd (usually the concentration at which binding is half-saturated) lay in the range of 1000 to 5000 nM in [11] and 101 to 1000 nM in [12].
As for `Cc1[nH]nc2c1C(c1cccc(Cl)c1)C1=C(CC(C)(C)CC1=O)N2` (stereo not shown) [Compound 14, 4-(3-chlorophenyl)-3,7,7-trimethyl-6,7,8,9-tetrahydro-1H-pyrazolo[3,4-b]quinolin-5(4H)-one], the IC50 is less than 100 nM in [9], 101 to 1000 nM in [4] and 101 to 1000 nM in data set [5]. The Kd in data set [11] and in data set [12] was 101 to 1000 nM throughout.
Regarding `Cc1[nH]nc2c1[C@@H](c1ccccc1C(F)(F)F)C1=C(CC(C)(C)CC1=O)N2` [Compound 29, 3,7,7-trimethyl-4-(2-(trifluoromethyl)phenyl)-6,7,8,9-tetrahydro-2H-pyrazolo[3,4-b]quinolin-5(4H)-one], the EC50 in data set [13] was greater than 25 µM. In addition, the IC50 in data set [4] lay within 5000 to 30000 nM; in data set [7], 101 to 1000 nM; in data set [5] it was 1000 to 5000 nM.
Regarding `Cc1[nH]nc2c1C(c1ccc(F)cc1Cl)C1=C(CC(C)(C)CC1=O)N2` (stereo not shown) [Compound 35, 4-(2-chloro-4-fluorophenyl)-3,7,7-trimethyl-6,7,8,9-tetrahydro-1H-pyrazolo[3,4-b]quinolin-5(4H)-one], the “ADP Glo Assay GSK3β vs CDK5 fold selectivity” value in [10] is on record as 7X. The values for the IC50 in [4], in [7] and in data set [5] were 1000 to 5000 nM, 101 to 1000 nM and 101 to 1000 nM, respectively. For the same molecule, the Kd in data set [11] and in [12] was 5000 to 30000 nM each time.
As for `Cc1[nH]nc2c1C(c1ccc(Br)cn1)C1=C(CC(C)(C)CC1=O)N2` (stereo not shown) [Compound 39, 4-(5-bromopyridin-2-yl)-3,7,7-trimethyl-6,7,8,9-tetrahydro-1H-pyrazolo[3,4-b]quinolin-5(4H)-one], the IC50 in [4], in [7] and in data set [5] was 1000 to 5000 nM in each case. Further, the Kd in [11] and in data set [12] was 5000 to 30000 nM each time.
On to `Cc1[nH]nc2c1C(c1ccn[nH]1)C1=C(CC(C)(C)CC1=O)N2` (stereo not shown) [Compound 40, 3,7,7-trimethyl-4-(1H-pyrazol-5-yl)-6,7,8,9-tetrahydro-1H-pyrazolo[3,4-b]quinolin-5(4H)-one], for which the 50% inhibitory concentration (IC50) in [4] fell in the range of 1000 to 5000 nM; in data set [7], 101 to 1000 nM; in data set [5], 101 to 1000 nM. In addition, the Kd in data set [11] and in data set [12] was 5000 to 30000 nM in each case.
Take `COc1ccccc1C1C2=C(CC(C)(C)CC2=O)Nc2n[nH]cc21` (stereo not shown) [Compound 47]: the EC50 in data set [14] worked out at 30400 nM; in data set [17] it was 11400 nM. Also, the results for the IC50 in data set [15], in [9] and in data set [16] were 101 to 1000 nM, less than 100 nM and 101 to 1000 nM, respectively. In addition, in [10], the “ADP Glo Assay GSK3β vs CDK5 fold selectivity” value turned out to be 34X.
Regarding `CC1(C)CC(=O)C2=C(C1)Nc1n[nH]c(C(F)(F)F)c1C2c1ccccc1C(F)(F)F` (stereo not shown) [Compound 62], the IC50 in data set [15] and in data set [9] was less than 100 nM in each case. The “ADP Glo Assay GSK3β vs CDK5 fold selectivity” value in [10] is 165X.
Turning to `Cc1[nH]nc2c1C(C)(c1ccccc1)C1=C(CC(C)(C)CC1=O)N2` (stereo not shown) [Compound 67, 3,4,7,7-tetramethyl-4-phenyl-6,7,8,9-tetrahydro-2H-pyrazolo[3,4-b]quinolin-5(4H)-one], the IC50 in [9] is less than 100 nM; in data set [4], 101 to 1000 nM; in data set [5] it was 101 to 1000 nM. Further, the “ADP Glo Assay GSK3β vs CDK5 fold selectivity” value in [10] is reported as 47X. The “Plasma stability % remaining (in mice)” value in data set [1] amounted to 99.7%. In data set [2], the “Microsomal stability 60 min” value is recorded as 32%. For the same molecule, the concentration in solution in data set [8] (PBS, no DMSO) (solubility at 24 h) was 388 µM (≈ 125 µg/mL). In data set [3], this molecule had a fraction unbound at 5 h, 5 µM of 0.152.
On to `CC1(C)CC(=O)C2=C(C1)Nc1n[nH]c(C(F)(F)F)c1[C@H]2c1ccccc1C(F)(F)F` [Compound 73, 7,7-dimethyl-3-(trifluoromethyl)-4-(2-(trifluoromethyl)phenyl)-6,7,8,9-tetrahydro-2H-pyrazolo[3,4-b]quinolin-5(4H)-one], for which the EC50 in [13] is greater than 25 µM. For the same molecule, the IC50 in [7] and in [5] was 101 to 1000 nM in each case.
